According to patent publication US20220348572A1, “BRIDGED HETEROCYCLYL-SUBSTITUTED PYRIMIDINE COMPOUND, PREPARATION METHOD THEREFOR, AND PHARMACEUTICAL USE THEREOF” (The National Institutes of Pharmaceutical R&D Co., Ltd., priority 2019, published 2022):

Columns and labels:
JAK1 kinase = biological target: T1, JAK1 kinase (Homo sapiens, UniProt P23458); assay: In vitro inhibitory activity on JAK1 kinase (ADP-Glo Kinase Assay); type: biochemical; settings: JAK1 kinase 4 nM, 1 mM ATP
T1 construct: purchased Invitrogen PV4744
Method in brief: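 JAK1 (4 nM final) preincubated with compound 15 min at 25° C., then substrate mix (1 mM ATP, IRS1 0.05 mg/ml) added for 60 min at 25° C. ADP-Glo luminescence read-out; top concentration 10 μM, 3-fold, 10 points, duplicates; IC50 reported in ranged classes.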

TYK2 kinase = biological target: T2, TYK2 kinase (Homo sapiens, UniProt P29597); assay: In vitro inhibitory activity on Tyk2 kinase (ADP-Glo Kinase Assay); type: biochemical; settings: TYK2 kinase 4 nM, 1 mM ATP
T2 sequence (P29597 897-1187 limits assumed): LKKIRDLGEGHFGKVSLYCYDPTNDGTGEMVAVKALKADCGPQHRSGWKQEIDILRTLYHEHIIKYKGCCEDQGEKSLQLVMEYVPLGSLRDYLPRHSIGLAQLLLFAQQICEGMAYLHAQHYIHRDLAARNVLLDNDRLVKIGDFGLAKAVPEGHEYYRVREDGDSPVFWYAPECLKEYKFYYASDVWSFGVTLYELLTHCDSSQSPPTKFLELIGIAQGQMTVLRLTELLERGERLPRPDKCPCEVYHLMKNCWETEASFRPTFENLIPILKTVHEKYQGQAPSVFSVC
Procedure: Test Example 2: Determination of In Vitro Inhibitory Activity of the Compounds of the Present Invention on Tyk2 Kinase Experimental materials: TYK2 (Invitrogen, PV4790), ATP (Promega, V915B), ADP-Glo Kinase Assay (Promega, V9101), IRS1 (Signalchem, 140-58-1000). Sample preparation: The compounds of the present invention and the control product were dissolved in DMSO solvent respectively to formulate into 10 mM initial liquid. The maximum concentration of the compound was 10 μM, 3-fold dilution, 10 concentration gradients, and duplicate wells for each concentration gradient. Experimental process: 0.1 μL of the compound to be tested was transferred into a 384 reaction plate (PE, 6007290) via Echo and centrifuged at 1000 rpm/min for 1 min. 5 μL TYK2 kinase (final concentration of 4 nM) was transferred into the 384 reaction plate, which was then centrifuged at 1000 rpm/min for 1 min, and incubated at 25° C. for 15 min. 5 μL substrate mixture (1 mM ATP, IRS1 0.05 mg/ml, kinase buffer solution) was transferred into the 384 reaction plate, which was then centrifuged at 1000 rpm/min for 1 min, and incubated at 25° C. for 60 min. 10 μL ADP-Glo was transferred into the 384 reaction plate, which was then centrifuged at 1000 rpm/min for 1 min, and incubated at 25° C. for 40 min. 20 μL test solution was transferred into the 384 reaction plate, which was centrifuged at 1000 rpm/min for 1 min and incubated at 25° C. for 40 min. RLU (Relative luminescence unit) signal was read by using an Envision multifunctional plate reader. The signal intensity was used to characterize the degree of the kinase activity. […] IC50 value of 0-100 nM is shown as A, IC50 value of 100-300 nM is shown as B, IC50 value of 300-1000 nM is shown as C, and IC50 value which is greater than 1000 nM is shown as D. NT means not tested.

[1] = test system: IFN-2α-stimulated TYK2/JAK1-mediated pathway (pSTAT3); assay: Inhibition of STAT3 signaling pathway of human whole blood (IFN-2α-induced pSTAT3, flow cytometry); type: cell-based
Procedure: Test Example 3: Inhibition Effect of the Compounds of the Present Invention on STAT3 Signaling Pathway of Human Whole Blood
Sample preparation: The compounds of the present invention and the control were dissolved in DMSO solvent respectively to formulate into 10 mM initial liquid. The maximum concentration of the compound was 10 μM, 3-fold dilution, 10 concentration gradients, and duplicate wells for each concentration gradient.
Experimental process: 20 μL of the compound of the present invention was added to a flow cytometer tube (BD, 352052) containing 180 μL anticoagulant sodium heparin. 20 μL PBS was added to the control. The sample was incubated at 37° C. for 30 min. 2 μL stimulating factor was added and then incubated at 37° C. for 20 min. 1 mL erythrocyte lysate was rapidly added, and the sample was repeatedly inverted 5-10 times or vortexed and then incubated at 37° C. for 10 min. The sample was centrifuged at 600 g for 6-8 min. The supernatant was discarded. The precipitate was vortexed until suspending. The cells were washed with 3 mL PBS and centrifuged at 600 g for 6-8 min. The supernatant was discarded. The precipitate was vortexed until suspending. 1 mL of membrane breaking solution was added, and the system was mixed gently, incubated on ice for 30 min, and centrifuged at 600 g for 6-8 min. The supernatant was discarded. The precipitate was vortexed until suspending. The cells were washed. 3 mL PBS was added. The system was centrifuged at 600 g for 6-8 min. The supernatant was discarded. The precipitate was vortexed untile suspending. The process was repeated twice. 100 μL PBS was added to each staining tube. IFN-2a was added for stimulation, and CD3 and pSTAT3 antibodies […] were added. The system was mixed well, protected from light and incubated at room temperature for 60 min. The cells were washed. 3 mL PBS was added. The system was centrifuged at 600 g for 6-8 min. The supernatant was discarded. The precipitate was vortexed until suspending. The precipitate was suspended in 150 μL in the dark for the flow cytometry analysis. The IC50 (half inhibitory concentration) of the compounds was obtained by using the following non-linear fitting equation:
Y=Bottom+(Top−Bottom)/(1+10^((Log IC50−X)*HillSlope));
X: Log value of the concentration of the compound;
Bottom: The minimum value, Top: The maximum value, HillSlope: Slope
The inhibition effect of by the compounds of the present invention on the IFN-2α-stimulated TYK2/JAK1-mediated pathway is shown in Table 3. IC50 value of 0-100 nM is shown as A, IC50 value of 100-300 nM is shown as B, IC50 value of 300-1000 nM is shown as C, IC50 value which is greater than 1000 nM is shown as D. NT means not tested.

T1 sequence (P23458 866-1154 limits assumed): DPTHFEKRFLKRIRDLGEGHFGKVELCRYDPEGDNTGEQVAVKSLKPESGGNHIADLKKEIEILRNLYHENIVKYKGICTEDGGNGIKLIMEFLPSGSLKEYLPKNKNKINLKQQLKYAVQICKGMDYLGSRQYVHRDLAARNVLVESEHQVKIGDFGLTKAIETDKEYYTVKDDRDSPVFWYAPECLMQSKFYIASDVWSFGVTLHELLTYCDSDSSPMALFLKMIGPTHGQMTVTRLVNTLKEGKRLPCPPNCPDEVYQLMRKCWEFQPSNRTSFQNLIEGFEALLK

Structure (SMILES)	IC50 (JAK1 kinase) [nM]	IC50 (TYK2 kinase) [nM]	IC50 [1] [nM]
Cn1cc(Nc2nccc(C3=CC4CCC(C3)N4C(=O)C3CC3F)n2)cn1 (stereo not drawn) [Compound 51, (2-fluorocyclopropyl)(3-(2-((1-methyl-1H-pyrazol-4-yl)amino)pyrimidin-4-yl)-8-azabicyclo[3.2.1]oct-2-en-8-yl)methanone]	< 100		< 100
Cn1cc(Nc2nccc(C3=CC4CCC(C3)N4C(=O)NC3(C#N)CC3)n2)cn1 (stereo not drawn) [Compound 54, N-(1-cyanocyclopropyl)-3-(2-((1-methyl-1H-pyrazol-4-yl)amino)pyrimidin-4-yl)-8-azabicyclo[3.2.1]oct-2-ene-8-carboxamide]	> 1000		< 100
Cn1cc(Nc2nccc(C3=CC4CCC(C3)N4C(=O)C3(C#N)CCOCC3)n2)cn1 (stereo not drawn) [Compound 64, 4-(3-(2-((1-methyl-1H-pyrazol-4-yl)amino)pyrimidin-4-yl)-8-azabicyclo[3.2.1]oct-2-ene-8-carbonyl)tetrahydro-2H-pyran-4-cyano]	300 to 1000		
Cn1cc(Nc2nccc(C3=CC4CCC(C3)N4C(=O)C34CC(F)(C3)C4)n2)cn1 (stereo not drawn) [Compound 74, (3-fluorobicyclo[1.1.1]pentan-1-yl)(3-(2-((1-methyl-1H-pyrazol-4-yl)amino)pyrimidin-4-yl)-8-azabicyclo[3.2.1]oct-2-en-8-yl)methanone]	> 1000		
Cn1cc(Nc2nccc(C3=CC4CCC(C3)N4C(=O)c3ccc(C(F)(F)F)cn3)n2)cn1 (stereo not drawn) [Compound 17, (3-(2-((1-methyl-1H-pyrazol-4-yl)amino)pyrimidin-4-yl)-8-azabicyclo[3.2.1]oct-2-en-8-yl)(5-(trifluoromethyl)pyridin-2-yl)methanone]	> 1000		
Cn1cc(Nc2nccc(C3=CC4CCC(C3)N4S(=O)(=O)NCC#N)n2)cn1 (stereo not drawn) [Compound 4, N-(cyanomethyl)-3-(2-((1-methyl-1H-pyrazol-4-yl)amino)pyrimidin-4-yl)-8-azabicyclo[3.2.1]oct-2-ene-8-sulfonamide]	> 1000		
CC(C(=O)N1C2C=C(c3ccnc(Nc4cnn(C)c4)n3)CC1CC2)C(F)(F)F (stereo not drawn) [Compound 67, 3,3,3-trifluoro-2-methyl-1-(3-(2-((1-methyl-1H-pyrazol-4-yl)amino)pyrimidin-4-yl)-8-azabicyclo[3.2.1]oct-2-en-8-yl)-1-acetone]	300 to 1000		
Cn1cc(Nc2ncc(F)c(C3=C[C@H]4CC[C@@H](C3)N4C(=O)NCC(F)(F)F)n2)cn1 [Compound 12-b, (1R,5S)-3-(5-fluoro-2-((1-methyl-1H-pyrazol-4-yl)amino)pyrimidin-4-yl)-N-(2,2,2-trifluoroethyl)-8-azabicyclo[3.2.1]oct-2-ene-8-carboxamide]	< 100		
Cn1cc(Nc2ncc(F)c(C3=CC4CCC(C3)N4C(=O)NCC#N)n2)cn1 (stereo not drawn) [Compound 11, N-(cyanomethyl)-3-(5-fluoro-2-((1-methyl-1H-pyrazol-4-yl)amino)pyrimidin-4-yl)-8-azabicyclo[3.2.1]oct-2-ene-8-carboxamide]	< 100	< 100	
CCCS(=O)(=O)N1CC(N2C3C=C(c4ccnc(Nc5cnn(C)c5)n4)CC2CC3)C1 (stereo not drawn) [Compound 84, N-(1-methyl-1H-pyrazol-4-yl)-4-(8-(1-(propansulfonyl)azetidin-3-yl)-8-azabicyclo[3.2.1]oct-2-en-3-yl)pyrimidin-2-amine]	> 1000		

Further lines, with some results ahead:

IC50 (JAK1 kinase) [nM]	IC50 (TYK2 kinase) [nM]	Structure (SMILES)	IC50 [1] [nM]
< 100	< 100	Cn1cc(Nc2nccc(C3=CC4CCC(C3)N4C(=O)NCC#N)n2)cn1 (stereo not drawn) [Compound 2, N-(cyanomethyl)-3-(2-((1-methyl-1H-pyrazol-4-yl)amino)pyrimidin-4-yl)-8-azabicyclo[3.2.1]oct-2-ene-8-carboxamide]	
< 100	< 100	Cn1cc(Nc2ncc(F)c(C3=CC4CCC(C3)N4C(=O)NCC(F)(F)F)n2)cn1 (stereo not drawn) [Compound 12, 3-(5-fluoro-2-((1-methyl-1H-pyrazol-4-yl)amino)pyrimidin-4-yl)-N-(2,2,2-trifluoroethyl)-8-azabicyclo[3.2.1]oct-2-ene-8-carboxamide]	
< 100		Cc1cnc(Nc2cnn(C)c2)nc1C1=C[C@@H]2CC[C@H](C1)N2C(=O)NCC(F)(F)F [Compound 19-a, (1S,5R)-3-(5-methyl-2-((1-methyl-1H-pyrazol-4-yl)amino)pyrimidin-4-yl)-N-(2,2,2-trifluoroethyl)-8-azabicyclo[3.2.1]oct-2-ene-8-carboxamide]	
< 100		Cc1cnc(Nc2cnn(C)c2)nc1C1=CC2CCC(C1)N2C(=O)[C@@H]1CC1(F)F (stereo partly drawn) [Compound 22, ((S)-2,2-difluorocyclopropyl)(3-(5-methyl-2-((1-methyl-1H-pyrazol-4-yl)amino)pyrimidin-4-yl)-8-azabicyclo[3.2.1]oct-2-en-8-yl)methanone]	
< 100		Cc1cnc(Nc2cn(C)nc2C)nc1C1=CC2CCC(C1)N2C(=O)NCC(F)(F)F (stereo not drawn) [Compound 26, 3-(2-((1,3-dimethyl-1H-pyrazol-4-yl)amino)-5-methylpyrimidin-4-yl)-N-(2,2,2-trifluoroethyl)-8-azabicyclo[3.2.1]oct-2-ene-8-carboxamide]	
< 100		Cn1cc(Nc2nccc(C3=C[C@@H]4CC[C@H](C3)N4C(=O)NCC(F)(F)F)n2)cn1 [Compound 3-a, (1S,5R)-3-(2-((1-methyl-1H-pyrazol-4-yl)amino)pyrimidin-4-yl)-N-(2,2,2-trifluoroethyl)-8-azabicyclo[3.2.1]oct-2-ene-8-carboxamide]	
